Patent publication US9624491B2, “Methods and compositions for the detection and treatment of cancer involving miRNAs and miRNA inhibitors and targets” (Memorial Sloan Kettering Cancer Center, priority 2010, dated 2017)

Assays:
FL5-12 lymphocytes = experiment: IL3 depletion competition assay for cytokine-independent survival of FL5-12 lymphocytes; format: cell-based, murine
Protocol: An established in vitro assay of hematopoietic transformation (Plas, Talapatra, Edinger, Rathmell, & Thompson, 2001) was used to identify the key oncogenic activities within the 17˜92 cluster and its paralogues. All miRNAs representing families of unique seed sequences, specifically miR-17, miR-18a, miR-19b-1 (miR-19), miR-20a, miR-106a, miR-106b and miR-25 were tested (FIG. 1a). The assay is based on the IL3 dependence of FL5-12 lymphocytes, which undergo apoptosis when removed from IL3. In competition experiments, FL5-12 cells were partially transduced with GFP plus individual miRNAs or empty vector and these mixed populations were monitored by fluorescence-activated cell sorting (FACS) for changes in their relative proportions (FIG. 1b).
(§1) FL5-12 murine lymphocytes, IL3 depletion studies and viral transductions were as described (Mavrakis, et al., 2008) (Plas, Talapatra, Edinger, Rathmell, & Thompson, 2001). Cell cycle and cell death assays based on uptake of DNA staining dye (LDS751) using Cell cycle and Viacount assays from Guava Technologies were performed as reported (Mavrakis, et al., 2008). The retroviral vectors are based on murine stem cell virus (MSCV) and include the miRNA expression vectors encoding miRs 17, 18a, 19b-1 (miR-19), 106a, 106b, 25 (He, et al., 2005), the vectors encoding Notch-ICN (a gift from W. Pear) (Pear, et al., 1996) and Bcl2 (Wendel, et al., 2004), the individual shRNA vectors (FIG. 17) and the library vector (MRP) (FIGS. 18a and b). miRNA inhibitor oligonucleotides (antagomirs) MZIP19a-PA-1, MZIP19b-PA-1, and scrambled control (MZIP000-PA-1) were from System Biosciences.
The primary screen is based on c-MYC-induced apoptosis in MEFs (Evan, et al., 1992). MEFs were transduced with c-MYC and the miRNA library and cultured in puromycin to select for homogeneous c-MYC expression; apoptosis was triggered by diluting serum from 10% to 0.1%. Surviving cells remained adherent and were collected for DNA isolation, PCR amplification of the integrated miRNA library constructs, sub-cloning into pGEM-T vector, bacterial transformation, and sequence identification of ˜100 colonies. A secondary library was constructed by sub-cloning all miRNAs from the primary screen into an MSCV construct. The secondary screen is based on the IL-3 dependence of FL5-12 lymphocytes in vitro (Mavrakis, et al., 2010), (Plas, Talapatra, Edinger, Rathmell, & Thompson, 2001). FL5-12 cells were partially transduced with the pooled, GFP-tagged library and selected by IL-3 depletion. miRNAs were identified as above. Individual miRNAs were subsequently validated in the same FL5-12 assay and in vivo.

FL5-12 cells = experiment: Cell cycle and cell death (viability) assays in FL5-12 cells; format: cell-based, murine
Protocol: as §1

[1] = test system: Pten, Ppp2r5e, Prkaa1 and Bim mRNA; experiment: qRT-PCR of miR-19 target genes in FL5-12 cells; format: cell-based; details: FL5-12 cells and murine T-ALL samples
Excerpt: Total RNA and miRNA-enriched RNA were extracted from cells and tumor samples using Allprep DNA/RNA/Protein Kits (Qiagen) and miRNeasy Mini Kits (Qiagen), respectively. Pathological diagnosis was by expert hematopathologists at Weill Cornell Medical College. cDNA synthesis and qRT-PCR and analysis by the ΔΔ Ct method were as described (Mavrakis, et al., 2008). TaqMan Gene Expression Assays were used for Bcl2L11 (Mm00437796_m1), Dock5 (Mm00555757_m1), FoxO1 (Mm00490672_m1), FoxO3 (Mm01185722_m1), Ppp2r5e (Mm00803759_m1), Prkaa1 (Mm01296695_m1) and Pten (Mm01212532_m1). Mouse GAPD (GAPDH) (4352932) and miR-19b (000396) were from Applied Biosystems. Expression was normalized to RNU6B (001093, Applied Biosystems).

[2] = test system: PPP2R5E, PRKAA1, BIM, PTEN, Bnip3, phosphorylated S6; experiment: Immunoblot on lysates of transduced FL5-12 cells; format: cell-based, murine
Protocol: Immunoblots were performed from whole cell lysates as described (Wendel, et al., 2004). Briefly, 50 μg of protein/sample were resolved on SDS-PAGE gels and transferred to Immobilon-P-membranes (Millipore). Antibodies were against Prkaa1 (2532, 1:1000, Cell Signaling), Bim/Bcl2L11 (AAP-330, 1:1000, Assay Designs), FoxO1 (94545, 1:1000, Cell Signaling), FoxO3a (9467, 1:1000, Cell Signaling) Phospho-FoxO3a (94665, 1:1000, Cell Signaling), Ppp2r5e (NB 100-845, NOVUS), Pten (9559, 1:1000, Cell Signaling), tubulin (1:5000; Sigma, B-5-1-2), actin (1:5000; Sigma, AC-15), Bnip3 (3769, 1:1000, Cell Signaling), phosphorylated S6 (2215, 1:1000, Cell Signaling), phosphorylated Akt (4058, 1:1000, Cell Signaling) and Dock5 [a generous gift from Alan Hall (MSKCC)]. Enhanced chemiluminescence was used for detection (ECL, Amersham).

FL5-12/Bcl2 cells = experiment: Complementation studies in FL5-12 cells stably expressing Bcl2; format: cell-based, murine; details: shifted from complete to IL3 deficient media
Protocol: The relative contribution of the novel miR-19 targets was assessed. The pro-apoptotic BIM protein opposes BCL2 and is an important regulator of lymphocyte survival (Bouillet, et al., 1999). To assess whether miR-19 has Bim-independent effects, complementation studies were conducted with FL5-12 cells engineered to stably express Bcl2 (FL5-12/Bcl2 cells). […] Similarly, expression of miR-19 was associated with continued proliferation in the presence of metformin-activated AMP kinase or expression of Pten or Pp2r5e (FIG. 16).

For “miR-19: miRNA of the 17˜92 cluster, UGUGCAAAUCCAUGCAAAACUGA (SEQ ID NO: 2); seed family in Table 3 (expressed or natural sequence; listed as Homo sapiens)”, the “enrichment of miRNA/GFP-expressing FL5-12 cells over parental cells upon IL3 depletion” value (FL5-12 lymphocytes; competition experiment, FACS) was “rapidly enriched over parental cells upon IL3 depletion”, the “IL-3 independence of FL5-12 cells” value (FL5-12 lymphocytes; retest of individual miRNAs from secondary library screen) was “confer IL-3 independence on FL5-12 cells” and the Viability (FL5-12 cells; FL5-12 cells withdrawn from IL3 for 48 h) was 82%±1.5%. The S-phase fraction (FL5-12 cells; synchronized FL5-12 cells 24 h after release) was 24.5%±0.5, the “reductions in the mRNA levels of Pten, Ppp2r5r, Prkaa1 and Bim” value [1] was “up to 2 ×” and the Bnip3 protein ([2]; FL5-12 cells) was “neither miR-19 nor the antagomir had an effect on Bnip3”. For the same substance, the PTEN protein ([2]; FL5-12 cells) was “no detectable effect on PTEN protein”, the “miR-19 target protein levels” value ([2]; FL5-12 cells) was “clear reduction in PPP2R5E, PRKAA1, and BIM” and the “ribosomal S6 phosphorylation” value ([2]; FL5-12 cells withdrawn from IL3 for 12 hours) was “directly activated ribosomal S6 phosphorylation”. The “enrichment of GFP-expressing FL5-12/Bcl2 cells” value (FL5-12/Bcl2 cells) was “continued enrichment in the presence of Bcl2”.
